Legend:
[1] = accelerated stability test, thermostatic stove at +55° C., 5 days; type: physicochemical
Description: The product obtained as described in Example 6 (comprising SAMe and phytic acid) and a sample of SAMe inositol hexaphosphate obtained as described in Example 5 are subjected to an accelerated stability test, incubated in a thermostatic stove at +55° C., and the analyses are repeated after 5 days.
The samples are analysed for the following values:
SAMe ion content (total of all enantiomers) determined by HPLC and expressed as % by weight enantiomeric purity, determined by HPLC and expressed as % of (SS) isomer active ingredient content, calculated by multiplying the previous two values and expressed as % by weight of (SS)SAMe overall purity, determined by HPLC as SAMe area/total area of chromatogram, expressed as area %. The figure comprises the values of all known degradation impurities.

[2] = Pharmacokinetic profile in the rat (SAMe blood levels, AUC); type: in vivo, Sprague Dawley rats; details: by cannula in water, 134 mg/kg and 95 mg/kg, compared with SAMe Pates at equal SAMe ion dose
Description: 70 Sprague Dawley rats (35 male and 35 female), aged 7-9 weeks and weighing 176-200 g, were acclimatized in a cage for two weeks before the start of the treatment, maintained at +22° C. and 55% relative humidity. The rats were fed on 4RF 21 (Mucedola) feed, and weighed before the beginning and at the end of the test. At the time of treatment, 32 animals per group (16 males and 16 females) were selected from those with the most similar weights, and assigned to the two treatments.
The product was administered by cannula, dissolved in water, at two dose levels, namely 134 mg/kg and 95 mg/kg. The rats were fasted overnight before administration and for a further two hours after administration. The two equimolar doses guaranteed an equal intake of SAMe ion.
The blood levels of SAMe were assayed by taking a sample from the tail vein at fixed intervals, at times 0 (pre-administration), 0.5, 1, 1.5, 2, 4, 8 and 24 hours after administration. The blood samples were centrifuged after addition of EDTA to separate the plasma from the cell fraction. The plasma was then analysed by HPLC according to the method reported in Wise, Fullerton J. Liq. Chromatogr. […]
The SAMe plasma concentration values are also used to determine, according to the Area Under Curve (AUC) calculation, the total quantity of active ingredient absorbed, obtaining the values set out in FIG. 2.

[3] = stability test, storage at +25° C. in a thermostatic stove up to 6 months; type: physicochemical; details: FIG. 4
Description: FIG. 3 depicts SAMe ion content analysis in a product stability test, storing samples at 25° C. in a thermostatic stove up to 6 months. The test measured the SAMe ion content (as percent loss of SAMe ion) in the (SS)SAMe inositol hexaphosphate salt (samples AT1003 and AT1005), the commercial SAMe 1,4-butanedisulphonate salt (sample SD4Test1), the commercial SAMe Pates salt (S1S1057B) and the SAMe-metal-phytate complex obtained according to EP1896489 (sample 04B17DS).
FIG. 4 further depicts SAMe ion content analysis in a product stability test for diastereomeric purity, storing samples at 25° C. in a thermostatic stove up to 6 months. The test measured the (SS)SAMe diastereoisomer ion content (as percent loss of (SS)SAMe diastereomer) in the (SS)SAMe inositol hexaphosphate salt (samples AT1003 and AT1005), and also in the commercial SAMe 1,4-butanedisulphonate salt (sample SD4Test1), the commercial SAMe Pates salt (S1S1057B) and the SAMe-metal-phytate complex obtained according to EP1896489 (sample 04B17DS).
Some samples of the products obtained as described in the previous examples are subjected to stability tests, storing them at +25° C., in a thermostatic stove. […]

SMILES: C[S@@+](CC[C@H](N)C(=O)[O-])C[C@H]1O[C@@H](n2cnc3c(N)ncnc32)[C@H](O)[C@@H]1O.O=P(O)(O)O[C@H]1[C@H](OP(=O)(O)O)[C@@H](OP(=O)(O)O)[C@H](OP(=O)(O)O)[C@@H](OP(=O)(O)O)[C@H]1OP(=O)(O)O [AT1003, (SS)-adenosyl methionine with myo-inositol 1,2,3,4,5,6 hexakisphosphate]
- content of the active ingredient (SS)SAMe after the stress test ([1]; 5 days at +55° C., compared with 04B17DS): maintains a higher content
- degradation by isomerization after the stress test ([1]; 5 days at +55° C., comparison of AT1003 and 04B17DS): surprisingly lower
- (SS) enantiomer (enantiomeric purity, HPLC), final value ([1]; after 5 days at +55° C.): 69.56%
- SAMe content (SAMe ion, total of all enantiomers, HPLC), final value ([1]; after 5 days at +55° C.): 30.6% w/w
- Purity (% area), final value ([1]; after 5 days at +55° C., HPLC SAMe area/total area): 90.0% area
- (SS)SAMe content (active ingredient content), final value ([1]; after 5 days at +55° C., SAMe content x enantiomeric purity, % by weight): 21.28%
- (SS) enantiomer (enantiomeric purity, HPLC), starting value ([1]; before incubation at +55° C.): 77.2%
- SAMe content (SAMe ion, total of all enantiomers, HPLC), starting value ([1]; before incubation at +55° C.): 34.45% w/w
- Purity (% area), starting value ([1]; before incubation at +55° C., HPLC SAMe area/total area): 95.98% area
- (SS)SAMe content (active ingredient content), starting value ([1]; before incubation at +55° C., SAMe content x enantiomeric purity, % by weight): 26.59%
- plasma concentration of active ingredient (SAMe) ([2]; FIG. 1): higher plasma concentration
- absorption (AUC 8 hours of SAMe plasma concentration) ([2]; FIG. 2): better absorption
- (SS)SAMe isomer content stability (percent loss of (SS)SAMe diastereomer) [3]: stable for longer
